The structures appear in SMILES notation. Like-named read-outs stand apart in the source and are kept apart here.

Results on 32 compounds are retold here after patent publication US8916183B2, “Pesticidal compositions and processes related thereto” (priority 2012, dated 2014).

Assay [1] concerns Beet Armyworm (BAW) (Spodoptera exigua). Description: Bioassay on beet armyworm (BAW), 128-well diet tray assay. The format is in vivo. The settings on record: Spodoptera exigua, read-out: % Mortality BAW 50 μg/cm^2. As to the method:
(§1) Certain molecules disclosed in this document were tested against BAW and CEW using procedures described in the following examples. In the reporting of the results, the “BAW & CEW Rating Table” was used (See Table Section).
Bioassays on BAW (Spodoptera exigua)
Bioassays on BAW were conducted using a 128-well diet tray assay. […] Trays were covered with a clear self-adhesive cover and held at 25° C., 14:10 light-dark for five to seven days. Percent mortality was recorded for the larvae in each well; activity in the eight wells was then averaged. The results are indicated in the table entitled “Table 5: Biological Results” (See Table Section).

The test system of assay [2] is Corn Earworm (CEW) (Helicoverpa zea). Description: Bioassay on corn earworm (CEW), 128-well diet tray assay. The format is in vivo. The settings on record: Helicoverpa zea, read-out: % Mortality CEW 50 μg/cm^2. As to the method:
as §1
Bioassays on CEW (Helicoverpa zea)
Bioassays on CEW were conducted using a 128-well diet tray assay. […] Trays were covered with a clear self-adhesive cover and held at 25° C., 14:10 light-dark for five to seven days. Percent mortality was recorded for the larvae in each well; activity in the eight wells was then averaged. The results are indicated in the table entitled “Table 5: Biological Results” (See Table Section).

For `CC1(O)CS/C(=N\N=C\c2ccc(-c3ncn(-c4ccc(OC(F)(F)F)cc4)n3)cc2)N1c1ccccc1C1CCCC1` (stereo not shown) [Compound 249C], the mortality at 50 µg/cm2 in assay [1] (beet armyworm, 50 μg/cm^2) lay in the range of 50 to 100%; in assay [2] (corn earworm, 50 μg/cm^2), 50 to 100%.
Take `CC1S/C(=N\N=C\c2ccc(-c3ncn(-c4ccc(OC(F)(F)F)cc4)n3)cc2)N(c2ccccc2C2CC2)C1=O` (stereo not shown) [Compound 127C]: the mortality at 50 µg/cm2 in assay [1] (beet armyworm, 50 μg/cm^2) is 50 to 100%; in assay [2] (corn earworm, 50 μg/cm^2), 50 to 100%.
On to `O=C1CS/C(=N\N=C\c2ccc(-c3ncn(-c4ccc(OC(F)(F)F)cc4)n3)cc2)N1c1c(Br)cccc1Br` [Compound 99C], for which the mortality at 50 µg/cm2 in assay [1] (beet armyworm, 50 μg/cm^2) fell in the range of 50 to 100%; in assay [2] (corn earworm, 50 μg/cm^2), 50 to 100%.
In the case of `CC1CS/C(=N\N=C\c2ccc(-c3ncn(-c4ccc(OC(F)(F)F)cc4)n3)cc2)N1c1ccccc1OC(F)F` (stereo not shown) [Compound 164C], the mortality at 50 µg/cm2 in assay [1] (beet armyworm, 50 μg/cm^2) lay within 50 to 100%; in assay [2] (corn earworm, 50 μg/cm^2), 50 to 100%.
Consider `COc1cc(C)c(/N=C(\N/N=C/c2ccc(-c3ncn(-c4ccc(C(F)(F)F)cc4)n3)cc2)SCOC(=O)CNC(=O)OCc2ccccc2)c(C)c1` [Compound 45C], for which the mortality at 50 µg/cm2 in assay [1] and in assay [2] was 50 to 100% in each case.
Turning to `CCC(C)c1ccccc1N1C(=O)CCS/C1=N\N=C\c1ccc(-c2ncn(-c3ccc(OC(F)(F)F)cc3)n2)cc1` (stereo not shown) [Compound 230C], the mortality at 50 µg/cm2 in assay [1] (beet armyworm, 50 μg/cm^2) fell in the range of 50 to 100%; in assay [2] (corn earworm, 50 μg/cm^2), 50 to 100%.
For the compound `COc1cc(C)c(N2C(=O)CS/C2=N\N=C\c2ccc(-c3ncn(-c4ccc(OC(F)(F)F)cc4)n3)cc2)c(C)n1` [Compound 101C], the mortality at 50 µg/cm2 in assay [1] (beet armyworm, 50 μg/cm^2) fell in the range of 50 to 100%; in assay [2] (corn earworm, 50 μg/cm^2) it was 50 to 100%.
With `Fc1cccc(F)c1N1CCS/C1=N\N=C\c1ccc(-c2ncn(-c3ccc(OC(F)(F)F)cc3)n2)cc1` [Compound 148C], the mortality at 50 µg/cm2 in assay [1] (beet armyworm, 50 μg/cm^2) was 50 to 100%; in assay [2] (corn earworm, 50 μg/cm^2), 50 to 100%.
With `FC(F)(F)Oc1ccc(-n2cnc(-c3ccc(/C=N/N=C4\SCCCN4c4ccccc4OC(F)(F)F)cc3)n2)cc1` [Compound 199C], the mortality at 50 µg/cm2 in assay [1] (beet armyworm, 50 μg/cm^2) lay within 50 to 100%; in assay [2] (corn earworm, 50 μg/cm^2), 50 to 100%.
As for `Cc1cs/c(=N\N=C\c2ccc(-c3ncn(-c4ccc(OC(F)(F)F)cc4)n3)cc2)n1-c1c(Cl)cccc1C(F)(F)F` [Compound 169C], the mortality at 50 µg/cm2 is 50 to 100% in assay [1] (beet armyworm, 50 μg/cm^2) and 50 to 100% in assay [2] (corn earworm, 50 μg/cm^2).
For the compound `O=C1CCS/C(=N\N=C\c2ccc(-c3ncn(-c4ccc(OC(F)(F)F)cc4)n3)cc2)N1c1c(Cl)cccc1C(F)(F)F` [Compound 228C], the mortality at 50 µg/cm2 in assay [1] (beet armyworm, 50 μg/cm^2) was in the range of 50 to 100%; in assay [2] (corn earworm, 50 μg/cm^2), 50 to 100%.
Consider `CCC(C)c1ccccc1N1/C(=N/N=C/c2ccc(-c3ncn(-c4ccc(OC(F)(F)F)cc4)n3)cc2)SCC1C` (stereo not shown) [Compound 163C], for which the mortality at 50 µg/cm2 in assay [1] (beet armyworm, 50 μg/cm^2) was 50 to 100%; in assay [2] (corn earworm, 50 μg/cm^2), 50 to 100%.
For the compound `CCC1CS/C(=N\N=C\c2ccc(-c3ncn(-c4ccc(OC(F)(F)F)cc4)n3)cc2)N1c1c(C)cccc1Cl` (stereo not shown) [Compound 167C], the mortality at 50 µg/cm2 fell in the range of 50 to 100% in assay [1] (beet armyworm, 50 μg/cm^2) and 50 to 100% in assay [2] (corn earworm, 50 μg/cm^2).
Consider `COc1cc(C)c(/N=C(/N/N=C/c2ccc(-c3ncn(-c4ccc(OC(F)(F)F)cc4)n3)cc2)SCC(=O)O)c(C)c1` [Compound 48C], for which the mortality at 50 µg/cm2 in assay [1] (beet armyworm, 50 μg/cm^2) lay within 50 to 100%; in assay [2] (corn earworm, 50 μg/cm^2), 50 to 100%.
On to `FC(F)(F)Oc1ccc(-n2cnc(-c3ccc(/C=N/N=C4\SCCN4c4ccccc4-c4ccccc4)cc3)n2)cc1` [Compound 144C], for which the mortality at 50 µg/cm2 is 50 to 100% in assay [1] (beet armyworm, 50 μg/cm^2) and 50 to 100% in assay [2] (corn earworm, 50 μg/cm^2).
Regarding `FC(F)Oc1ccccc1N1CCS/C1=N\N=C\c1ccc(-c2ncn(-c3ccc(OC(F)(F)F)cc3)n2)cc1` [Compound 152C], the mortality at 50 µg/cm2 in assay [1] (beet armyworm, 50 μg/cm^2) lay in the range of 50 to 100%; in assay [2] (corn earworm, 50 μg/cm^2) it was 50 to 100%.
For the compound `Cc1cc(C)c(N2/C(=N/N=C/c3ccc(-c4ncn(-c5ccc(OC(F)(F)F)cc5)n4)cc3)SCCC2C)c(C)c1` (stereo not shown) [Compound 218C], the mortality at 50 µg/cm2 was 50 to 100% in assay [1] (beet armyworm, 50 μg/cm^2) and 50 to 100% in assay [2] (corn earworm, 50 μg/cm^2).
Regarding `CC1CCS/C(=N\N=C\c2ccc(-c3ncn(-c4ccc(OC(F)(F)F)cc4)n3)cc2)N1c1ccccc1OC(F)F` (stereo not shown) [Compound 221C], the mortality at 50 µg/cm2 in assay [1] (beet armyworm, 50 μg/cm^2) was in the range of 50 to 100%; in assay [2] (corn earworm, 50 μg/cm^2), 50 to 100%.
For `CC(C)(C)c1ccccc1N1CCCS/C1=N\N=C\c1ccc(-c2ncn(-c3ccc(OC(F)(F)F)cc3)n2)cc1` [Compound 210C], the mortality at 50 µg/cm2 was in the range of 50 to 100% in assay [1] (beet armyworm, 50 μg/cm^2) and 50 to 100% in assay [2] (corn earworm, 50 μg/cm^2).
On to `CN(C)c1cccc(N2C(=O)CS/C2=N\N=C\c2ccc(-c3ncn(-c4ccc(OC(F)(F)F)cc4)n3)cc2)c1` [Compound 97C], for which the mortality at 50 µg/cm2 fell in the range of 50 to 100% in assay [1] (beet armyworm, 50 μg/cm^2) and 50 to 100% in assay [2] (corn earworm, 50 μg/cm^2).
Take `CC(C)c1ccccc1N1C(=O)CS/C1=N\N=C\c1ccc(-c2ncn(-c3ccc(C(F)(F)F)cc3)n2)cc1` [Compound 120C]: the mortality at 50 µg/cm2 in assay [1] (beet armyworm, 50 μg/cm^2) lay in the range of 50 to 100%; in assay [2] (corn earworm, 50 μg/cm^2), 50 to 100%.
As to `Cc1cccc(C)c1N1C(=O)CS/C1=N\N=C\c1ccc(-c2cnn(-c3ccc(OC(F)(F)F)cc3)c2)cc1` [Compound 104C], the mortality at 50 µg/cm2 was 50 to 100% in assay [1] (beet armyworm, 50 μg/cm^2) and 50 to 100% in assay [2] (corn earworm, 50 μg/cm^2).
On to `Cc1cs/c(=N\N=C\c2ccc(-c3ncn(-c4ccc(OC(F)(F)F)cc4)n3)cc2)n1-c1ccccc1OC(F)(F)F` [Compound 170C], for which the mortality at 50 µg/cm2 in assay [1] (beet armyworm, 50 μg/cm^2) is 50 to 100%; in assay [2] (corn earworm, 50 μg/cm^2), 50 to 100%.
As to `Cc1cccc(Cl)c1N1C(=O)CCS/C1=N\N=C\c1ccc(-c2ncn(-c3ccc(OC(F)(F)F)cc3)n2)cc1` [Compound 227C], the mortality at 50 µg/cm2 lay in the range of 50 to 100% in assay [1] (beet armyworm, 50 μg/cm^2) and 50 to 100% in assay [2] (corn earworm, 50 μg/cm^2).
On to `Cc1cc(Cl)cc(C)c1N1C(=O)CS/C1=N\N=C\c1ccc(-c2ncn(-c3ccc(OC(F)(F)F)cc3)n2)cc1` [Compound 105C], for which the mortality at 50 µg/cm2 in assay [1] (beet armyworm, 50 μg/cm^2) was 50 to 100%; in assay [2] (corn earworm, 50 μg/cm^2) it was 50 to 100%.
As for `Cc1ccccc1N1C(=O)CS/C1=N\N=C\c1ccc(-c2ncn(-c3ccc(OC(F)(F)F)cc3)n2)cc1` [Compound 113C], the mortality at 50 µg/cm2 in assay [1] (beet armyworm, 50 μg/cm^2) fell in the range of 50 to 100%; in assay [2] (corn earworm, 50 μg/cm^2) it was 50 to 100%.
Consider `CC1CS/C(=N\N=C\c2ccc(-c3ncn(-c4ccc(OC(F)(F)F)cc4)n3)cc2)N1c1c(Cl)cccc1C(F)(F)F` (stereo not shown) [Compound 160C], for which the mortality at 50 µg/cm2 was in the range of 50 to 100% in assay [1] (beet armyworm, 50 μg/cm^2) and 50 to 100% in assay [2] (corn earworm, 50 μg/cm^2).
Consider `CCCc1ccccc1N1C(=O)C(C)S/C1=N\N=C\c1ccc(-c2ncn(-c3ccc(OC(F)(F)F)cc3)n2)cc1` (stereo not shown) [Compound 128C], for which the mortality at 50 µg/cm2 in assay [1] (beet armyworm, 50 μg/cm^2) was in the range of 50 to 100%; in assay [2] (corn earworm, 50 μg/cm^2), 50 to 100%.
`CC(C)c1cc(F)ccc1N1/C(=N/N=C/c2ccc(-c3ncn(-c4ccc(OC(F)(F)F)cc4)n3)cc2)SCC1(C)O` (stereo not shown) [Compound 258C]: the mortality at 50 µg/cm2 in assay [1] (beet armyworm, 50 μg/cm^2) is 50 to 100%; in assay [2] (corn earworm, 50 μg/cm^2) it was 50 to 100%.
As for `CC1S/C(=N\N=C\c2ccc(-c3ncn(-c4ccc(OC(F)(F)F)cc4)n3)cc2)N(c2c(F)cccc2Cl)C1=O` (stereo not shown) [Compound 130C], the mortality at 50 µg/cm2 in assay [1] (beet armyworm, 50 μg/cm^2) was 50 to 100%; in assay [2] (corn earworm, 50 μg/cm^2) it was 50 to 100%.
`CC(F)(F)Oc1ccccc1N1C(=O)CCS/C1=N\N=C\c1ccc(-c2ncn(-c3ccc(OC(F)(F)F)cc3)n2)cc1` [Compound 229C]: the mortality at 50 µg/cm2 in assay [1] (beet armyworm, 50 μg/cm^2) lay within 50 to 100%; in assay [2] (corn earworm, 50 μg/cm^2), 50 to 100%.
As for `Cc1cccc(C)c1N1C(=O)CS/C1=N\N=C\c1ccc(-c2ccn(-c3ccc(OC(F)(F)F)cc3)n2)cc1` [Compound 103C], the mortality at 50 µg/cm2 lay within 50 to 100% in assay [1] (beet armyworm, 50 μg/cm^2) and 50 to 100% in assay [2] (corn earworm, 50 μg/cm^2).
